Experimental data taken from ChEMBL document CHEMBL4619795, “Establishing the Structure-Activity Relationship of Daptomycin” (ACS Med Chem Lett, 2020).

Columns and labels:
Type in all cases: functional
[1] = system: Staphylococcus aureus; test: Antibacterial activity against methicillin-resistant Staphylococcus aureus 11 assessed as bacterial growth inhibition in presence of 50 ug/ml calcium ions by CLSI protocol based broth microdilution method
[2] = system: Enterococcus; test: Antibacterial activity against Enterococcus 60 assessed as bacterial growth inhibition in presence of 50 ug/ml calcium ions by CLSI protocol based broth microdilution method
[3] = system: Staphylococcus aureus; test: Antibacterial activity against methicillin-resistant Staphylococcus aureus 14 assessed as bacterial growth inhibition in presence of 50 ug/ml calcium ions by CLSI protocol based broth microdilution method
[4] = system: Enterococcus faecalis; test: Antibacterial activity against Streptococcus faecalis assessed as bacterial growth inhibition in presence of 50 ug/ml calcium ions by CLSI protocol based broth microdilution method
[5] = system: Staphylococcus aureus; test: Antibacterial activity against methicillin-resistant Staphylococcus aureus 86 assessed as bacterial growth inhibition in presence of 50 ug/ml calcium ions by CLSI protocol based broth microdilution method
[6] = system: Enterococcus faecalis; test: Antibacterial activity against Enterococcus faecalis ATCC 29212 assessed as bacterial growth inhibition in presence of 50 ug/ml calcium ions by CLSI protocol based broth microdilution method
[7] = system: Staphylococcus aureus; test: Antibacterial activity against methicillin-resistant Staphylococcus aureus 88 assessed as bacterial growth inhibition in presence of 50 ug/ml calcium ions by CLSI protocol based broth microdilution method
[8] = system: Enterococcus; test: Antibacterial activity against Enterococcus 6 assessed as bacterial growth inhibition in presence of 50 ug/ml calcium ions by CLSI protocol based broth microdilution method
[9] = system: Staphylococcus aureus; test: Antibacterial activity against Staphylococcus aureus ATCC 29213 assessed as bacterial growth inhibition in presence of 50 ug/ml calcium ions by CLSI protocol based broth microdilution method

| SMILES | MIC [1] [µg/mL] | MIC [2] [µg/mL] | MIC [3] [µg/mL] | MIC [4] [µg/mL] | MIC [5] [µg/mL] | MIC [6] [µg/mL] | MIC [7] [µg/mL] | MIC [8] [µg/mL] | MIC [9] [µg/mL] |
| --- | --- | --- | --- | --- | --- | --- | --- | --- | --- |
| CCCCCCCCCC(=O)N[C@@H](Cc1c[nH]c2ccccc12)C(=O)N[C@@H](CC(N)=O)C(=O)N[C@@H](CC(=O)O)C(=O)N[C@@H]1C(=O)NCC(=O)N[C@@H](Cc2c[nH]cn2)C(=O)N[C@@H](CC(=O)O)C(=O)N[C@H](C)C(=O)N[C@@H](CC(=O)O)C(=O)NCC(=O)N[C@H](CO)C(=O)N[C@@H]([C@@H](C)CC(=O)O)C(=O)N[C@@H](CC(=O)c2ccccc2N)C(=O)O[C@@H]1C | 16 | ≥ 32 | 16 | ≥ 32 | 8 | ≥ 32 | 8 | ≥ 32 | 8 |
| CCCCCCCCCC(=O)N[C@@H](Cc1c[nH]c2ccccc12)C(=O)N[C@@H](CC(N)=O)C(=O)N[C@@H](CC(=O)O)C(=O)N[C@@H]1C(=O)NCC(=O)N[C@@H](C(C)C)C(=O)N[C@@H](CC(=O)O)C(=O)N[C@H](C)C(=O)N[C@@H](CC(=O)O)C(=O)NCC(=O)N[C@H](CO)C(=O)N[C@@H]([C@@H](C)CC(=O)O)C(=O)N[C@@H](CC(=O)c2ccccc2N)C(=O)O[C@@H]1C | ≥ 32 | ≥ 32 | ≥ 32 | ≥ 32 | 8 | ≥ 32 | 8 | ≥ 32 | 8 |
| CCCCCCCCCC(=O)N[C@@H](Cc1c[nH]c2ccccc12)C(=O)N[C@@H](CC(N)=O)C(=O)N[C@@H](CC(=O)O)C(=O)N[C@@H]1C(=O)NCC(=O)N[C@@H](CCCCN)C(=O)N[C@@H](CC(=O)O)C(=O)N[C@H](C)C(=O)N[C@@H](CC(=O)O)C(=O)NCC(=O)N[C@H](CO)C(=O)N[C@@H]([C@@H](C)CC(=O)O)C(=O)N[C@@H](CC(=O)c2ccccc2N)C(=O)O[C@@H]1C | 16 | 16 | ≥ 32 | 8 | 1 | ≥ 32 | 1 | ≥ 32 | 1 |
| CCCCCCCCCC(=O)N[C@@H](Cc1c[nH]c2ccccc12)C(=O)N[C@@H](CC(N)=O)C(=O)N[C@@H](CC(=O)O)C(=O)N[C@@H]1C(=O)NCC(=O)N[C@@H](CCC(=O)O)C(=O)N[C@@H](CC(=O)O)C(=O)N[C@H](C)C(=O)N[C@@H](CC(=O)O)C(=O)NCC(=O)N[C@H](CO)C(=O)N[C@@H]([C@@H](C)CC(=O)O)C(=O)N[C@@H](CC(=O)c2ccccc2N)C(=O)O[C@@H]1C | ≥ 32 | ≥ 32 | ≥ 32 | ≥ 32 | ≥ 32 | ≥ 32 | 16 | ≥ 32 | 16 |
| CCCCCCCCCC(=O)N[C@@H](Cc1c[nH]c2ccccc12)C(=O)N[C@@H](CC(N)=O)C(=O)N[C@@H](CC(=O)O)C(=O)N[C@@H]1C(=O)NCC(=O)N[C@@H](CCN)C(=O)N[C@@H](CC(=O)O)C(=O)N[C@H](C)C(=O)N[C@@H](CC(=O)O)C(=O)NCC(=O)N[C@H](CO)C(=O)N[C@@H]([C@@H](C)CC(=O)O)C(=O)N[C@@H](CC(=O)c2ccccc2N)C(=O)O[C@@H]1C | 2 | 8 | 0.5 | – | 0.25 | 16 | 0.25 | 16 | 0.25 |
| CCCCCCCCCC(=O)N[C@@H](Cc1c[nH]c2ccccc12)C(=O)N[C@@H](CC(N)=O)C(=O)N[C@@H](CC(=O)O)C(=O)N[C@@H]1C(=O)NCC(=O)N[C@@H](CN)C(=O)N[C@@H](CC(=O)O)C(=O)N[C@H](C)C(=O)N[C@@H](CC(=O)O)C(=O)NCC(=O)N[C@H](CO)C(=O)N[C@@H]([C@@H](C)CC(=O)O)C(=O)N[C@@H](CC(=O)c2ccccc2N)C(=O)O[C@@H]1C | 8 | 8 | 1 | – | 1 | ≥ 32 | 0.5 | ≥ 32 | 1 |
